# From patent publication US9718869B2, “Peptide-based compounds and uses thereof to treat beta-amyloid accumulation” (MANUS PHARMACEUTICALS (CANADA) LTD., priority 2012, dated 2017)
# Where “and” joins values, the source holds several entries; their conditions need not be identical. Equal values may be shown once. Entries after “also recorded” stand apart in the source; their conditions may differ. Read-outs that look alike come from different tables or passages of the source. No end group written: not given here.
# Assays:
# bulbectomized mice = assay: Morris water maze spatial memory test, bulbectomized mice immunized with (FR-3-NP-1)2-Lys-OH / (R-2-FR-3-NP-1)2-Lys-OH in IFA (Example 3); assay type: in vivo, NMRI mice; details: four immunizations with IFA; for Number of visits to the training/rescue compartment (in words) / Time spent in the training/rescue compartment (in words): BE mice
# Description: Immunization was carried out in four stages.
# Each group consisted of 5-8 mice.
# bulbectomized (BE) mice [1] = assay: Morris water maze spatial memory test, bulbectomized mice immunized with KLH conjugates of NP-1 fragments (Example 2); assay type: in vivo, NMRI mice; details: KLH conjugate, 1st immunization CFA, 2nd IFA, 0.1 mg/mouse
# Description: NMRI mice (see Example 1) were immunized with peptides conjugated to snail keyhole limpet hemocyanin (KLH).
# In this study, a scheme with a double introduction of peptides into mice with complete Freund's adjuvant (CFA) for the first immunization and incomplete Freund's adjuvant (IFA) for the second immunization was used. Between the first and second immunization a bulbectomy was performed. After the second immunization, one month after bulbectomy, the mice's state of spatial memory was tested, after which the mice were put down and their blood and cerebrospinal fluid were collected to determine their level of antipeptide antibodies.
# To prepare the peptide conjugates with KLH, 0.75 mg of peptide was dissolved in 0.65 ml of KLH in PBS with a protein concentration of 5.8 mg/ml and stirred for an hour while adding 38 μl of 2.5% glutaraldehyde solution in PBS. The resulting solution was stirred for 15 hours and dialyzed against PBS for 20 hours.
# Tables 12 and 13 present the results of statistical analysis of spatial memory test data using univariate analysis (one-way ANOVA), to judge the ability of the animal to distinguish sections of the Morris water maze.
# sham operated (SO) mice = details: mouse, in vivo
# Description: Experiments were performed on NMRI mice weighing 20-30 g. Initiation of Alzheimer's type neurodegenerative process was caused by the removal of the animal's olfactory bulb (bulbectomy). The operation was performed under sterile conditions under nembutal anesthesia (40 mg/kg). For local anaesthesia during scalping, a subcutaneous injection of 0.5% solution of novocaine was used. […] A group of animals to serve as control was sham-operated (SO); these animals were subjected to the same procedure but without removal of the olfactory bulbs. After surgery all animals were injected with “Bitsillin 5” antibiotic into the muscles of the hind paw at a dose of 6000 units for the prevention of infection. Upon completion of behavioral experiments, morphological studies of animal brains were conducted to ensure complete removal of olfactory bulbs.
# The state of spatial memory was assessed after mice had developed spatial skills in the Morris water maze, which combines training in the formation of active avoidance and the ability to navigate in space. This method enables separate evaluation of learning and memory.
# The experimental chamber was a plastic pool of dimensions 100×60×30 cm, filled with water at a temperature of 23 degrees Celsius. […] The water was clouded with milk so that animals could not visually detect the rescue platform.
# All mice were pre-tested for the ability to swim and absence of an original sector preference in the water maze. The goal of the education was to have mice in one minute find the underwater platform and remember its location. Training was conducted in four sessions every day for five days, and the latency period for finding the platform was recorded for every session. 24 hours after completion of training, the level of the animal's spatial memory in the absence of a rescue platform was tested for one minute. Two indicators were used in analyzing the results: the number of visits to each sector of the maze and time spent in each sector.
# Two-factor analysis (general ANOVA) was used for statistical analysis of behavioral data. Post-hoc analysis was performed using the criterion of LSD (least significant difference). The reliability of the results was also evaluated using two-tailed Student's t-test.
# β-amyloid (1-40) [2] = details: mouse, in vivo
# Description: (§1) To collect brain structures to determine the biochemical level of β-amyloid, mice were decapitated and the brain was removed in the cold. The cortex was removed by scalpel from both hemispheres, the hippocampus was bilaterally removed, the probes were placed in labeled plastic test tubes that were frozen at −80° C. and stored in a freezer until the biochemical study of the level of β-amyloid.
# (§2) Biochemical identification of β-amyloid (1-40) by enzyme immunoassay was performed as follows: samples of the cortex and hippocampus, which were stored at −80° C. after collection, were weighed, thawed at room temperature, and then homogenized in a solution of 2% CHAPS 20 mM Tris-HCl (pH 7.7) in the presence of protease inhibitors (10 μg/ml leupeptin, 10 μg/ml aprotinin and 10 μg/ml AEBSF) in a volume calculated for each sample (4 ml of solution per 1 g of tissue), using a RT-12 tissue microgrinder in a glass beaker for the homogenization using a ground-glass pestle. Homogenates were centrifuged at 21,000 g at 4° C. for 30 min. Selected supernatants were stored at −80° C. and thawed immediately prior to the immunoassay analysis.
# Another part of the samples were homogenized in 5 M guanidine-HCl solution of 50 mM Tris-HCl (pH 8.0), in a volume calculated for each sample (400 mcl of solution per 50 mg of tissue). […]
# bulbectomized (BE) mice [3] = assay: Morris water maze spatial memory test, bulbectomized mice immunized with NP-1 / R-1-NP-1 in IFA (Example 1); assay type: in vivo, NMRI mice; details: for Ratio of sector visits to total number of all visits, sector 1 / Ratio of sector visits to total number of all visits, sector 2 / Ratio of sector visits to total number of all visits, sector 3 (training sector with platform) / Ratio of sector visits to total number of all visits, sector 4 / Time spent in sector 1 / Time spent in sector 2 / Time spent in sector 3 (training sector with platform) / Time spent in sector 4: BE (bulbectomized) mice, 4 immunizations with IFA, 1 min memory test; for Effect of immunization on spatial memory of BE mice (in words): immunization with IFA, no complete Freund's adjuvant
# Description: The immunization was carried out in four stages.
# This method enables separate evaluation of learning and memory.
# β-amyloid (1-40) [4] = assay: ELISA of β-amyloid (1-40) in brain (cortex+hippocampus) of bulbectomized immunized mice; assay type: in vivo, NMRI mice; details: for Average level of βA / Individual levels of βA: BE (bulbectomized) mice, cortex+hippocampus; for Individual levels of βA: one value per mouse
# Description: as §1, §2
# Another part of the samples were homogenized in 5 M guanidine-HCl solution of 50 mM Tris-HCl (pH 8.0), in a volume calculated for each sample (400 mcl of solution per 50 mg of tissue). The samples were stirred for 3-4 hours at room temperature, then diluted in BSAT-DPBS (5% BSA, 0.03% Tween-20) buffer, centrifuged at 21,000 g at 4° C. for 30 min, after which the supernatants were collected.
# The immunosorbent assay was performed using the instructions on the ELISA for the determination of β-amyloid (1-40) (Aβ40) mouse (ELISA kit mouse Aβ40, Invitrogen).
# After testing the memory of all groups of animals, brain perfusion was carried out in the cold under deep anaesthesia, and individual samples of brain tissue (cortex+hippocampus) were collected, which were stored in a freezer at a temperature of −80° C. until biochemical studies.
# [5] = test system: animals with experimentally induced AD; details: cited from earlier work
substance,measurement,setting,value
(cyclo(Ala-Glu)(Trp-Ser-Glu-Arg-Phe-Tyr-Glu-Cys-Cys-Lys-Glu))2-Lys-OH ({cyclo(Ala-Glu)}-WSERFYECCKEK-OH; cysteine pairing not given here; also: dimer: two chains joined on Lys-OH) [(R-2-FR-3-NP-1)2-Lys-OH],Number of visits to the training/rescue compartment (in words),bulbectomized mice,preferred the second and third compartments
same,Time spent in the training/rescue compartment (in words),bulbectomized mice,selected the third compartment with statistical significance
IPGKRSERFY [FR-2-NP-1],"Ratio of sector visits to total number of all visits, sector 1",bulbectomized (BE) mice [1],17.17 ± 2.32 percentage
same,"Ratio of sector visits to total number of all visits, sector 2",bulbectomized (BE) mice [1],34.5 ± 2.05 percentage
same,"Ratio of sector visits to total number of all visits, sector 3 (training sector with platform)",bulbectomized (BE) mice [1],35.51 ± 2.64 percentage
same,"Ratio of sector visits to total number of all visits, sector 4",bulbectomized (BE) mice [1],13.67 ± 2.53 percentage
same,Time spent in sector 1,bulbectomized (BE) mice [1],12.33 ± 2.38 s
same,Time spent in sector 2,bulbectomized (BE) mice [1],18.33 ± 1.82 s
same,Time spent in sector 3 (training sector with platform),bulbectomized (BE) mice [1],20.1 ± 1.86 s
same,Time spent in sector 4,bulbectomized (BE) mice [1],8.33 ± 1.98 s
cyclo(Ala-Glu)-Trp-(Glu-Trp-Asp-Leu-Val-Gly-Ile-Pro-Gly-Lys-Arg-Ser-Glu-Arg-Phe-Tyr-Cys-Cys-Lys-Glu) ({cyclo(Ala-Glu)}-WEWDLVGIPGKRSERFYCCKE; cysteine pairing not given here) [R-1-NP-1],"Ratio of sector visits to total number of all visits, sector 1",sham operated (SO) mice,12.4 ± 2.7 percentage
same,"Ratio of sector visits to total number of all visits, sector 2",sham operated (SO) mice,26 ± 2.86 percentage
same,"Ratio of sector visits to total number of all visits, sector 3 (training sector with platform)",sham operated (SO) mice,40 ± 2.19 percentage
same,"Ratio of sector visits to total number of all visits, sector 4",sham operated (SO) mice,22.2 ± 3.18 percentage
same,Time spent in sector 1,sham operated (SO) mice,7.2 ± 1.83 s
same,Time spent in sector 2,sham operated (SO) mice,14 ± 2.43 s
same,Time spent in sector 3 (training sector with platform),sham operated (SO) mice,30.41 ± 2.42 s
same,Time spent in sector 4,sham operated (SO) mice,8.4 ± 1.96 s
same,Average level of βA,β-amyloid (1-40) [2],2.78 ± 0.21 ng/g tissue
same,"Ratio of sector visits to total number of all visits, sector 1",bulbectomized (BE) mice [3],20.67 ± 2.2 percentage
same,"Ratio of sector visits to total number of all visits, sector 2",bulbectomized (BE) mice [3],27 ± 1.46 percentage
same,"Ratio of sector visits to total number of all visits, sector 3 (training sector with platform)",bulbectomized (BE) mice [3],34.33 ± 2.44 percentage
same,"Ratio of sector visits to total number of all visits, sector 4",bulbectomized (BE) mice [3],18.17 ± 1.49 percentage
same,Time spent in sector 1,bulbectomized (BE) mice [3],12.17 ± 2.06 s
same,Time spent in sector 2,bulbectomized (BE) mice [3],13.67 ± 1.5 s
same,Time spent in sector 3 (training sector with platform),bulbectomized (BE) mice [3],25.33 ± 4.02 s
same,Time spent in sector 4,bulbectomized (BE) mice [3],8.83 ± 1.85 s
same,Effect of immunization on spatial memory of BE mice (in words),bulbectomized (BE) mice [3],showed improvement of spatial memory; also recorded: resulted in improved memory; also recorded: protects the spatial memory; also recorded: led to memory protection
same,Change of βA level versus non-immunized BE mice (in words),β-amyloid (1-40) [4],significant reduction of β-amyloid
same,Average level of βA,β-amyloid (1-40) [4],2.985 ± 0.2 ng/g tissue
same,Individual levels of βA,β-amyloid (1-40) [4],2.525 ng/g tissue and 3.704 ng/g tissue and 3.705 ng/g tissue and 2.398 ng/g tissue and 2.91 ng/g tissue and 2.77 ng/g tissue and 2.882 ng/g tissue
EWDLVGIPGKRSERFY [FR-1-NP-1],"Ratio of sector visits to total number of all visits, sector 1",bulbectomized (BE) mice [1],22.17 ± 2.63 percentage
same,"Ratio of sector visits to total number of all visits, sector 2",bulbectomized (BE) mice [1],30.17 ± 1.49 percentage
same,"Ratio of sector visits to total number of all visits, sector 3 (training sector with platform)",bulbectomized (BE) mice [1],30.83 ± 2.32 percentage
same,"Ratio of sector visits to total number of all visits, sector 4",bulbectomized (BE) mice [1],18.33 ± 1.74 percentage
same,Time spent in sector 1,bulbectomized (BE) mice [1],15.83 ± 2.88 s
same,Time spent in sector 2,bulbectomized (BE) mice [1],17.0 ± 2.21 s
same,Time spent in sector 3 (training sector with platform),bulbectomized (BE) mice [1],18.33 ± 2.04 s
same,Time spent in sector 4,bulbectomized (BE) mice [1],8.83 ± 0.7 s
"EWDLVGIPGKRSERFYECCKE (cysteine pairing not given here) [NP-1, 2372355, reference compound]",Brain levels of βA (in words),[5]; animals with experimentally induced AD,prevented an increase in brain levels of βA
same,Antibodies produced by immunization (in words),[5]; in vivo,produced antibodies capable of binding to the type α7 AChRs
same,Spatial memory in healthy animals (in words),[5]; in vivo,did not lead to deterioration of spatial memory
same,"Ratio of sector visits to total number of all visits, sector 1",sham operated (SO) mice,14.5 ± 1.89 percentage
same,"Ratio of sector visits to total number of all visits, sector 2",sham operated (SO) mice,27.5 ± 2.1 percentage
same,"Ratio of sector visits to total number of all visits, sector 3 (training sector with platform)",sham operated (SO) mice,40.75 ± 3.15 percentage
same,"Ratio of sector visits to total number of all visits, sector 4",sham operated (SO) mice,18 ± 2.08 percentage
same,Time spent in sector 1,sham operated (SO) mice,10.5 ± 2.25 s
same,Time spent in sector 2,sham operated (SO) mice,13 ± 1.68 s
same,Time spent in sector 3 (training sector with platform),sham operated (SO) mice,27.5 ± 1.5 s
same,Time spent in sector 4,sham operated (SO) mice,9 ± 1.58 s
same,Average level of βA,β-amyloid (1-40) [2],3.22 ± 0.38 ng/g tissue
same,"Ratio of sector visits to total number of all visits, sector 1",bulbectomized (BE) mice [3],26.6 ± 1.54 percentage
same,"Ratio of sector visits to total number of all visits, sector 2",bulbectomized (BE) mice [3],27.8 ± 2.06 percentage
same,"Ratio of sector visits to total number of all visits, sector 3 (training sector with platform)",bulbectomized (BE) mice [3],24.2 ± 0.49 percentage
same,"Ratio of sector visits to total number of all visits, sector 4",bulbectomized (BE) mice [3],21.2 ± 1.6 percentage
same,Time spent in sector 1,bulbectomized (BE) mice [3],17 ± 0.84 s
same,Time spent in sector 2,bulbectomized (BE) mice [3],15.2 ± 1.69 s
same,Time spent in sector 3 (training sector with platform),bulbectomized (BE) mice [3],16 ± 11.14 s
same,Time spent in sector 4,bulbectomized (BE) mice [3],11.8 ± 1.91 s
same,Effect of immunization on spatial memory of BE mice (in words),bulbectomized (BE) mice [3],not capable of recalling the training sector; also recorded: did not improve their memory; also recorded: did not show protective activity; also recorded: did not exhibit memory protection
same,Change of βA level versus non-immunized BE mice (in words),β-amyloid (1-40) [4],significant reduction of β-amyloid
same,Average level of βA,β-amyloid (1-40) [4],2.44 ± 0.38 ng/g tissue
same,Individual levels of βA,β-amyloid (1-40) [4],3.039 ng/g tissue and 2.316 ng/g tissue and 3.324 ng/g tissue and 1.115 ng/g tissue and 2.408 ng/g tissue
SERFYECCKE (cysteine pairing not given here) [FR-3-NP-1],"Ratio of sector visits to total number of all visits, sector 1",bulbectomized (BE) mice [1],20.75 ± 1.25 percentage
same,"Ratio of sector visits to total number of all visits, sector 2",bulbectomized (BE) mice [1],26.25 ± 2.95 percentage
same,"Ratio of sector visits to total number of all visits, sector 3 (training sector with platform)",bulbectomized (BE) mice [1],32.0 ± 4.3 percentage
same,"Ratio of sector visits to total number of all visits, sector 4",bulbectomized (BE) mice [1],21.0 ± 2.38 percentage
same,Time spent in sector 1,bulbectomized (BE) mice [1],13.0 ± 1.91 s
same,Time spent in sector 2,bulbectomized (BE) mice [1],13.75 ± 2.1 s
same,Time spent in sector 3 (training sector with platform),bulbectomized (BE) mice [1],25.25 ± 3.47 s
same,Time spent in sector 4,bulbectomized (BE) mice [1],8.0 ± 1.58 s
Ser-Glu-Arg-Phe-Tyr-Glu-Cys-Cys-Lys-Glu-Lys(Ser-Glu-Arg-Phe-Tyr-Glu-Cys-Cys-Lys-Glu)-OH [(FR-3-NP-1)2-Lys-OH],Number of visits to the training/rescue compartment (in words),bulbectomized mice,much worse
same,Time spent in the training/rescue compartment (in words),bulbectomized mice,much worse
same,Effect of immunization on spatial memory of BE mice (in words),bulbectomized mice,only a slight tendency towards improvement of spatial memory
